The source made the active and inactive calls. The calls are words filed in the database; no cut-off is given here.
Experiments:
[1] = biological target: 11-beta-hydroxysteroid dehydrogenase 1 (Mus musculus, UniProt P50172); assay: Inhibition of mouse 11beta-HSD1 expressed in CHOK1 cells using XL665-labeled cortisol as substrate measured after 24 hrs by HTRF assay; assay type: cell-based, CHO-K1
[2] = biological target: 11-beta-hydroxysteroid dehydrogenase 1 (Mus musculus) (UniProt P50172); assay: In vivo inhibition of 11 beta-HSD1 in brain of mouse at 20 mg/kg, po relative to control; assay type: functional, organism-based
11-beta-hydroxysteroid dehydrogenase 1 (Mus musculus), sequence (P50172 whole entry, looked up): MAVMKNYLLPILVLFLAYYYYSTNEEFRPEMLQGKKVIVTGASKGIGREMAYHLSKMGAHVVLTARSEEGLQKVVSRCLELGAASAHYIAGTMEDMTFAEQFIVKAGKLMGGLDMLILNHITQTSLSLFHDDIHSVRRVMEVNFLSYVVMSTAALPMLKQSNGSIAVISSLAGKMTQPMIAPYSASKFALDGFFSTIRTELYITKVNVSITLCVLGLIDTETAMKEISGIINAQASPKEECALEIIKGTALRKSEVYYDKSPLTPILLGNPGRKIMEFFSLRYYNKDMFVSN

[3] = biological target: 11-beta-hydroxysteroid dehydrogenase 1 (Homo sapiens, UniProt P28845); assay: Inhibition of human 11beta-HSD1 expressed in CHOK1 cells using XL665-labeled cortisol as substrate measured after 24 hrs by HTRF assay; assay type: cell-based, CHO-K1
11-beta-hydroxysteroid dehydrogenase 1 (Homo sapiens, UniProt P28845), sequence (P28845 whole entry): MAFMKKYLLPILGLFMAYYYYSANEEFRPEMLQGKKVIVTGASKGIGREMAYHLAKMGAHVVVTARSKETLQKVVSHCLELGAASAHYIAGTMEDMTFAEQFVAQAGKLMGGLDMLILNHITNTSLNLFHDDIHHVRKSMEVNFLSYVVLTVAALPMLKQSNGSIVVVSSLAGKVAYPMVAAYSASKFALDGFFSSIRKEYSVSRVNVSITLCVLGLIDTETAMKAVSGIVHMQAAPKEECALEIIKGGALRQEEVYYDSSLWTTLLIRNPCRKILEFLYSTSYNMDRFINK

[4] = biological target: 11-beta-hydroxysteroid dehydrogenase 1 (Mus musculus) (UniProt P50172); assay: Ex vivo inhibition of 11 beta-HSD1 in brain of iv dosed mouse by measuring cortisol amount after 1 hr by ELISA; assay type: functional, organism-based
[5] = Drug level in brain of mouse at 10 mg/kg, ip administered as single dose measured at 0.5 hrs; assay type: ADME, organism-based; settings: read-out: Drug uptake
[6] = Drug level in brain of mouse at 10 mg/kg, ip administered as single dose measured at 3 hrs; assay type: ADME, organism-based; settings: read-out: Drug uptake
[7] = Drug level in plasma of mouse at 10 mg/kg, ip administered as single dose measured at 0.5 hrs; assay type: ADME, organism-based
[8] = Drug level in plasma of mouse at 10 mg/kg, ip administered as single dose measured at 3 hrs; assay type: ADME, organism-based
[9] = Ratio of drug concentration in brain to plasma of mouse at 10 mg/kg, ip administered as single dose measured at 0.5 hrs; assay type: ADME, organism-based; settings: read-out: BPR
[10] = Ratio of drug concentration in brain to plasma of mouse at 10 mg/kg, ip administered as single dose measured at 3 hrs; assay type: ADME, organism-based; settings: read-out: BPR
Mus musculus [11] = assay: (§1) Neuroprotective activity in mouse model of middle cerebral artery occlusion-induced ischemia-reperfusion injury assessed as cerebral infarct volume at 10 mg/kg, ip administered twice at 1 to 5 hrs post induction of ischemia followed by 24 hrs of reperfusion by TTC staining based assay (reference value: 90.3 +/- 6 mm3); assay type: functional
Mus musculus [12] = assay: as §1, with “30” for “10”; assay type: functional
Mus musculus [13] = assay: Neuroprotective activity in mouse model of middle cerebral artery occlusion-induced ischemia-reperfusion injury assessed as reduction in cerebral infarct area at 10 to 30 mg/kg, ip administered twice at 1 to 5 hrs post induction of ischemia followed by 24 hrs of reperfusion by TTC staining based assay; assay type: functional, organism-based
[14] = biological target: 11-beta-hydroxysteroid dehydrogenase 1 (Mus musculus) (UniProt P50172); assay: In vivo inhibition of 11 beta-HSD1 in brain of mouse at 30 mg/kg, po relative to control; assay type: functional, organism-based

11-beta-hydroxysteroid dehydrogenase 1 (Mus musculus, UniProt P50172), sequence (P50172 whole entry): as the sequence (P50172 whole entry, looked up) above

Compound `CCC1CN(CC(=O)NC2C3CC4CC2CC(C(N)=O)(C4)C3)S(=O)(=O)N(c2c(Cl)cc(C(F)(F)F)cc2Cl)C1` (stereo not given) has an IC50 [1] of 0.695 µM.
Work on `CC1CN(CC(=O)NC2C3CC4CC2CC(C(N)=O)(C4)C3)S(=O)(=O)N(c2c(Cl)cc(-c3ccccc3)cc2Cl)C1` (stereo not given) yielded an IC50 [1] of 0.174 µM.
With `Cc1cc(Cl)c(N2CC(C)CN(CC(=O)NC3C4CC5CC3CC(C(N)=O)(C5)C4)S2(=O)=O)c(Cl)c1` (stereo not given) the IC50 [1] was 0.0037 µM and the inhibition [2] was 69%.
`CC1CN(CC(=O)NC2C3CC4CC2CC(C(N)=O)(C4)C3)S(=O)(=O)N(c2c(Cl)cc(-c3ccco3)cc2Cl)C1` (stereo not given) showed an IC50 [1] of 0.068 µM.
Work on `CC1CN(CC(=O)NC2C3CC4CC2CC(C(N)=O)(C4)C3)S(=O)(=O)N(c2ccc(C(F)(F)F)cn2)C1` (stereo not given) yielded an IC50 [1] of 0.94 µM.
In the case of `CC1CN(CC(=O)NC2C3CC4CC2CC(C(N)=O)(C4)C3)S(=O)(=O)N(c2ccccn2)C1` (stereo not given), the IC50 [1] is reported as 1.21 µM.
`CC1CN(CC(=O)NC2C3CC4CC2CC(C(N)=O)(C4)C3)S(=O)(=O)N(c2c(Cl)cc(C(F)(F)F)cc2Cl)C1` (stereo not given) gave an IC50 [3] of 0.001 µM, an IC50 [1] of 0.001 µM and an inhibition [2] of 82%. The inhibition [4] was “Dose-dependent effect”, the concentration at 0.5 h [5] was 1780 ng/mL and the concentration at 3 h [6] was 670 ng/mL. It also gave a concentration at 0.5 h [7] of 4770 ng/mL, a concentration at 3 h [8] of 1310 ng/mL and a Kp at 0.5 h [9] of 0.38. For the same compound, the Kp at 3 h [10] was 0.53, the Activity (Mus musculus [11]) was 66.2 mm3 and the Activity (Mus musculus [12]) was 59 mm3. For the same compound, the Activity (Mus musculus [13]) was “Active”.
In the case of `CC1CN(CC(=O)NC2C3CC4CC2CC(C(N)=O)(C4)C3)S(=O)(=O)N(c2c(Cl)cc(Cl)cc2Cl)C1` (stereo not given), the IC50 [1] is reported as 0.002 µM and the inhibition [14] is reported as 66%.
For `NC(=O)C12CC3CC(C1)C(NC(=O)CN1CCCN(c4c(Cl)cc(C(F)(F)F)cc4Cl)S1(=O)=O)C(C3)C2` (stereo not given), the inhibition [2] was 45.8%.
`CC(C)C1CN(CC(=O)NC2C3CC4CC2CC(C(N)=O)(C4)C3)S(=O)(=O)N(c2c(Cl)cc(C(F)(F)F)cc2Cl)C1` (stereo not given) gave an IC50 [1] of 2.8 µM.
For `CC1CN(CC(=O)NC2C3CC4CC2CC(C(N)=O)(C4)C3)S(=O)(=O)N(c2c(Cl)cc(Br)cc2Cl)C1` (stereo not given), the inhibition [2] was 41.1%.
